Reference: paper PMC5867665, “Targeting Multiple Effector Pathways in Pancreatic Ductal Adenocarcinoma with a G-Quadruplex-Binding Small Molecule” (Journal of Medicinal Chemistry, 2018)

System: PANC-1 cells
Test: BG4 and 53BP1 immunofluorescence microscopy
Assay type: cell-based, human
Excerpt: Because many established G4-stabilizing ligands induce transcription and replication-coupled DNA damage in the vicinity of G4-forming sequences,[44] we investigated whether CM03 treatment affects cellular G4 occurrence and/or induces a DNA damage response. To do this, we treated asynchronous PANC-1 cells with CM03 and performed immunofluorescence staining using the G4-specific antibody BG4[18] and an antibody against the DNA damage and double-strand break (DSB) marker 53BP1[45] followed by 3D image construction and analysis. […] This further confirms that CM03 has a direct action at G4 sites to increase G4 stabilization. Consistent with the capability of unresolved endogenous genomic G4 sites[46] and small molecule-stabilized G4s to obstruct DNA replication,[44] a 2-fold increase in the number of 53BP1 foci was only apparent after 24 h treatment with CM03 (11 ± 2 compared to 21 ± 3 53BP1 foci) (Figure 4a,c). To determine if CM03 induced DNA damage directly at G4 sites, we calculated the extent of co-localization between BG4 and 53BP1 foci using object-based image co-localization analysis.
BG4 and 53BP1 immunofluorescence experiments were performed essentially as described,[16],[18] with slight modifications. In brief, 8 × 10^4 PANC-1 cells were seeded overnight on circular no. 1.5 coverslips per well in 12-well plates. Next day, cells were incubated with 400 nM CM03 (or left untreated) in 1 mL of media at 37 °C for 6 and 24 h and then fixed with 4 (v/v) % freshly prepared paraformaldehyde in 1× PBS for 10 min at RT. Coverslips were washed 1× PBS, permeabilized with 0.1% (v/v) Triton-X100 in PBS for 10 min, washed with 1× PBS, and blocked with 2% (w/v) Marvel milk (Premier Foods plc) in PBS for 1 h at 37 °C. After blocking, coverslips were incubated with BG4 (20 nM) at 37 °C for 1 h, washed three times for 5 min with PBST (0.1% (v/v) Tween 20), and then incubated with 37 °C for 1 h with rabbit α-FLAG 1:800 (CST, catalogue no. 2368) and mouse α-53BP1 1:500 (Millipore, catalogue no. MAB2803). […] Fluorescence illumination was with a xenon source and FITC, Cy5, and DAPI fluorescent filter cubes used to image BG4, 53BP1, and the nuclei, respectively. […] See extended methods, immunofluorescence, for the custom protocol designed for the BG4-53BP1 foci quantification and co-localization method. […]
For the putative G4 sequences (PQs) analysis, the occurrence of the canonical G4 motif (G≥3N1-7G≥3+N1-7G3≥N1-7G≥3), as previously defined 2,3, was calculated both in gene promoters (defined as 2 kilobases upstream of the transcription start site (TSS) and 100 bases downstream ) and gene bodies (exons and introns). […]

`O=C1c2ccc3c4c(c(NCCN5CCCC5)cc(c24)C(=O)N1CCCN1CCOCC1)C(=O)N(CCCN1CCOCC1)C3=O` [CM03, 2,7-bis(3-morpholinopropyl)-4-((2-(pyrrolidin-1-yl)ethyl)amino)benzo[lmn][3,8]phenanthroline-1,3,6,8(2H,7H)-tetraone] was tested. Which “number of nuclear BG4 foci” value (400 nM CM03, 6 h) did it give?
The value was 393 ± 13.

What about the “number of 53BP1 foci” value (400 nM CM03, 24 h) of the same compound?
The value was 21 ± 3.

And the “number of nuclear BG4 foci” value (400 nM CM03, 24 h)?
Its value is 444 ± 39.

What about the “total BG4 foci per nucleus associated with DNA damage foci” value (400 nM CM03, 24 h) of the same compound?
Its value is 1.4%.
